Reference: publication PMC6822569 (Journal of medicinal chemistry, 2019)
Read-outs that look alike come from different tables or passages of the source.

Experiments:
HepG2 = HepG2 cytotoxicity assay; type: cell-based, human
P. falciparum Dd2 [1] = assay: microbe, parasite or virus in culture; type: cell-based
P. falciparum Tm90-C2B = assay: In vitro blood stage antimalarial activity, MSF assay, strain Tm90-C2B; type: cell-based; conditions: read-out: blood stage IC50 vs P. falciparum Tm90-C2B; Tm90-C2B: Atovaquone resistant clinical isolate
P. yoelii = assay: In vivo blood stage efficacy, modified 4-day test in murine P. yoelii model; conditions: after 80 mg/kg × 4 days oral dosing
[2] = In vivo pharmacokinetic study, single oral dose in mice, plasma and liver
P. falciparum Dd2 [3] = assay: 72 h SYBR Green I drug susceptibility, parental Dd2; type: cell-based; conditions: Plasmodium falciparum, DD2, 72 h, read-out: Dd2 IC50
[4] = molecular target: hERG (human-ether-a-go-go-related gene) potassium channel (Homo sapiens, UniProt Q12809); assay: hERG potassium channel current, automatic parallel patch clamp; type: cell-based
Chain of hERG (human-ether-a-go-go-related gene) potassium channel (Q12809 whole entry): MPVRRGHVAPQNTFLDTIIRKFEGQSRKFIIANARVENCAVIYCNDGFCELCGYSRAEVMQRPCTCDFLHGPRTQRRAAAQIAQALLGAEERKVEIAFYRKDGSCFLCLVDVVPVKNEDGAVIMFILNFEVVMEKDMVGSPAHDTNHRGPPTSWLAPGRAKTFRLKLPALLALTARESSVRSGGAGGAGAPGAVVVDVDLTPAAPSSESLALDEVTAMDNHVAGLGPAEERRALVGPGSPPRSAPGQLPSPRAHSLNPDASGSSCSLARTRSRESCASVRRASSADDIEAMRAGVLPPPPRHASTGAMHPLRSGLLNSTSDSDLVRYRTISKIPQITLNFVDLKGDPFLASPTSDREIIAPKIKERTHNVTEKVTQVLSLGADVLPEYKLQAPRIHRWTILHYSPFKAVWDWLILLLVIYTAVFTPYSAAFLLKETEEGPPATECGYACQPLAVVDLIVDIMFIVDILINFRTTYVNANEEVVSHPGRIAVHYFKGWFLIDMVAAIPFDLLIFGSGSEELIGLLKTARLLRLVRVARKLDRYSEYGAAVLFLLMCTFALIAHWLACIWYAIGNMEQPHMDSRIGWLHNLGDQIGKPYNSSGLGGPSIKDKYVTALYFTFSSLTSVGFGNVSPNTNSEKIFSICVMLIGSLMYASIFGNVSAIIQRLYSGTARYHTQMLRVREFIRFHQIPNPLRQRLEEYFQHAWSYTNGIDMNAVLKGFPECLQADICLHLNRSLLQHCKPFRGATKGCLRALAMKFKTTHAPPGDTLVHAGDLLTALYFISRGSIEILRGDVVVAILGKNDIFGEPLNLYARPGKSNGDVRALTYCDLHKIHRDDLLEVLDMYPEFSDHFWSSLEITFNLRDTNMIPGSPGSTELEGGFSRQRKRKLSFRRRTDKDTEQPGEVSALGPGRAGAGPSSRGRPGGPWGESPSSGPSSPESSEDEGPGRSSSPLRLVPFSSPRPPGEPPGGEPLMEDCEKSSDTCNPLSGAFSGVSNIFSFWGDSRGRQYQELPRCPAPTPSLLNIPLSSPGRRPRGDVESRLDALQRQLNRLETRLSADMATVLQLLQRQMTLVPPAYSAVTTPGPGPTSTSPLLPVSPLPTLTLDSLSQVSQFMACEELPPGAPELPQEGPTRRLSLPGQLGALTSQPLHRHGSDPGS

[5] = In vitro metabolic stability, human liver microsomes; conditions: 1 μM
[6] = read-out: blood stage IC50 vs P. falciparum Dd2, Dd2: MDR strain with Old World genetic background
[7] = Plasmodium falciparum, DD2, read-out: blood stage IC50 vs P. falciparum Dd2
[8] = male, ICR, mouse, liver, po, 80 mg/kg
[9] = plasma, single oral dose of 80 mg/kg, mice
[10] = liver, single oral dose of 80 mg/kg, mice

**Q.** What does the source list for “1,4-Dichloro-6-(3-(diethylamino)propoxy)acridin-9(10H)-one [compound 100]”?
**A.** IC50 (HepG2): 77000 nM; selectivity index (SI) (D6) (HepG2; SI = IC50 (cytotoxicity)/IC50 (D6)): 152; IC50 (P. falciparum Dd2 [1]; [6]): 1300 nM; IC50 (P. falciparum Tm90-C2B): > 2500 nM

**Q.** With CCCN(CCC)CCOc1ccc2c(=O)c3c(Cl)c(Cl)ccc3[nH]c2c1 [compound 74, 1,2-Dichloro-6-(2-(dipropylamino)ethoxy)acridin-9(10H)-one] as the compound, how does the “cure in murine P. yoelii model” value (P. yoelii) read?
**A.** curative

**Q.** And the IC50 (P. falciparum Dd2 [1]; [7])?
**A.** 0.05 nM

**Q.** What about the CL/F [2, 8] of the same compound?
**A.** 2.45 mL/min/kg

**Q.** And the Vd/F [2, 8]?
**A.** 0.392 L/kg

**Q.** With CCN(CC)CCOc1ccc2c(=O)c3c(Cl)c(Cl)ccc3[nH]c2c1 [compound 73, 1,2-Dichloro-6-(2-(diethylamino)ethoxy)acridin-9(10H)-one] as the compound, how does the IC50 (P. falciparum Dd2 [3]) read?
**A.** 40 ± 5.5 nM

**Q.** What about the IC50 (P. falciparum Dd2 [1]; [7]) of the same compound?
**A.** 12 nM

**Q.** Which “cure in murine P. yoelii model” value (P. yoelii) does the source give for CCCN(CCC)CCOc1ccc2c(=O)c3c(F)cc(F)cc3[nH]c2c1 [compound 48, 6-(2-(Dipropylamino)ethoxy)-1,3-difluoroacridin-9(10H)-one] here?
**A.** curative

**Q.** What about the CL/F [2, 8] of the same compound?
**A.** 15.5 mL/min/kg

**Q.** And the Vd/F [2, 8]?
**A.** 14 L/kg

**Q.** And the CL/F [2, 9]?
**A.** 407.77 mL/min/kg

**Q.** With CCN(CC)CCOc1ccc2c(=O)c3ccc(Cl)cc3[nH]c2c1 [compound 7, 3-chloro-6-(2-(diethylamino)ethoxy)acridin-9(10H)-one] as the compound, how does the IC50 (P. falciparum Dd2 [1]; [7]) read?
**A.** 41 nM

**Q.** For CCN(CC)CCOc1ccc2[nH]c3cc(Cl)ccc3c(=O)c2c1 [compound 128, 6-chloro-2-(2-(diethylamino)ethoxy)acridin-9(10H)-one], which IC50 (P. falciparum Dd2 [1]; [7]) is on record?
**A.** 132 nM

**Q.** With O=c1c2ccc(OCCCCl)cc2[nH]c2ccc(Cl)c(Cl)c12 [compound 71, 1,2-Dichloro-6-(3-chloropropoxy)acridin-9(10H)-one] as the compound, how does the IC50 (P. falciparum Dd2 [1]; [7]) read?
**A.** 17 nM

**Q.** For CN1CCCC1CCOc1ccc2c(=O)c3c(Cl)c(Cl)ccc3[nH]c2c1 (stereo not shown) [compound 76, 1,2-Dichloro-6-(2-(1-methylpyrrolidin-2-yl)ethoxy)acridin-9(10H)-one], which IC50 (P. falciparum Dd2 [1]; [7]) is on record?
**A.** 172 nM

**Q.** For “1,2-Dichloro-6-(3-(dibutylamino)propoxy)acridin-9(10H)-one [compound 75]”, which IC50 (HepG2; read-out: cytotoxicity IC50 vs HepG2, human hepatocarcinoma HepG2 cells) is on record?
**A.** 54500 nM

**Q.** And the “cure in murine P. yoelii model” value (P. yoelii)?
**A.** curative

**Q.** What about the “hERG activity (% inhibition at 10 uM)” value [4] of the same compound?
**A.** 57%

**Q.** And the “metabolic stability vs microsomes t1/2, human” value [5]?
**A.** 0.2 h

**Q.** What about the IC50 (P. falciparum Dd2 [1]; [6]) of the same compound?
**A.** 0.041 nM

**Q.** What about the IC50 (P. falciparum Tm90-C2B) of the same compound?
**A.** 228 nM

**Q.** And the AUCinf [2, 10]?
**A.** 169389 ng·h/mL

**Q.** What about the AUClast [2, 10] of the same compound?
**A.** 167981 ng·h/mL

**Q.** And the CL/F [2, 10]?
**A.** 8.95 mL/min/kg

**Q.** What about the Cmax [2, 10] of the same compound?
**A.** 21269 ng/mL

**Q.** What about the MRT b [2, 10] of the same compound?
**A.** 10.08 h

**Q.** What about the Tmax [2, 10] of the same compound?
**A.** 2.75 h

**Q.** And the Vz/F [2, 10]?
**A.** 3.605 L/kg

**Q.** What about the t1/2 [2, 10] of the same compound?
**A.** 4.63 h

**Q.** What about the AUCinf [2, 9] of the same compound?
**A.** 3239 ng·h/mL

**Q.** What about the AUClast [2, 9] of the same compound?
**A.** 3049 ng·h/mL

**Q.** What about the CL/F [2, 9] of the same compound?
**A.** 431.32 mL/min/kg

**Q.** And the Cmax [2, 9]?
**A.** 226 ng/mL

**Q.** And the MRT b [2, 9]?
**A.** 6.96 h

**Q.** What about the Tmax [2, 9] of the same compound?
**A.** 2.75 h

**Q.** What about the Vz/F [2, 9] of the same compound?
**A.** 223.865 L/kg

**Q.** And the t1/2 [2, 9]?
**A.** 6.00 h

**Q.** For O=c1c2ccc(OCCNC34CC5CC(CC(C5)C3)C4)cc2[nH]c2ccc(Cl)c(Cl)c12 [compound 81, 6-(2-((Adamantan-1-yl)amino)ethoxy)-1,2-dichloroacridin-9(10H)-one], which IC50 (P. falciparum Dd2 [1]; [7]) is on record?
**A.** 77 nM

**Q.** For COc1cc(NC(C)CCCN)c2ncccc2c1 (stereo not shown) [Primaquine, reference compound], which Vd/F ([2]; male, ICR, mouse, in vivo, po, 80 mg/kg) is on record?
**A.** 4.42 L/kg

**Q.** For CCN(CC)CCOc1ccc2c(=O)c3c(F)cc(F)cc3[nH]c2c1 [compound 46, 6-(2-(Diethylamino)ethoxy)-1,3-difluoroacridin-9(10H)-one], which IC50 (P. falciparum Dd2 [1]; [7]) is on record?
**A.** 16 nM

**Q.** With CCCN(CCC)CCCOc1ccc2c(=O)c3c(F)cc(F)cc3[nH]c2c1 [compound 52, 6-(3-(Dipropylamino)propoxy)-1,3-difluoroacridin-9(10H)-one] as the compound, how does the CL/F [2, 8] read?
**A.** 5.8 mL/min/kg

**Q.** What about the Vd/F [2, 8] of the same compound?
**A.** 3.48 L/kg

**Q.** Which IC50 (P. falciparum Dd2 [1]; [7]) does the source give for CC(C)(C)NCCOc1ccc2c(=O)c3c(Cl)c(Cl)ccc3[nH]c2c1 [compound 78, 6-(2-(tert-Butylamino)ethoxy)-1,2-dichloroacridin-9(10H)-one] here?
**A.** 679 nM
